Test results: PubChem BioAssay (NCI)
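48-hour exposure; five concentrations; linearly interpolated endpoints. TGI: total growth inhibition.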

Assays:
Assay in all cases: NCI-60 cell line screen, 48 h
[1] = test system: HOP-62 NSCLC
[2] = test system: OVCAR-4 ovarian
[3] = test system: HCT-15 colon
[4] = test system: HS 578T breast
[5] = test system: OVCAR-3 ovarian
[6] = test system: SK-MEL-28 melanoma
[7] = test system: NCI/ADR-RES ovarian
[8] = test system: PC-3 prostate
[9] = test system: SW-620 colon
[10] = test system: SR leukemia
[11] = test system: TK-10 renal
[12] = test system: K-562 leukemia
[13] = test system: MDA-MB-435
[14] = test system: A498 renal
[15] = test system: UO-31 renal
[16] = test system: SF-268 CNS
[17] = test system: SNB-75 CNS
[18] = test system: NCI-H23 lung
[19] = test system: SK-MEL-2 melanoma

Row | Structure (SMILES) | TGI [1] | TGI [2] | TGI [3] | TGI [4] | TGI [5] | TGI [6] | TGI [7] | TGI [8] | TGI [9] | TGI [10] | TGI [11] | TGI [12] | TGI [13] | TGI [14] | TGI [15] | TGI [16] | TGI [17] | TGI [18] | TGI [19]
1 | CC1CC[C@@]2(OC1)OC1C[C@H]3[C@@H]4CC[C@H]5CC(OC6OC(CO)C(OC7OC(CO)C(O)C(O)C7O)C(O)C6O)CCC5(C)[C@H]4CCC3(C)C1[C@@H]2C (stereo partly drawn) | 16.1 µM | 17.1 µM | 28.9 µM | 17.1 µM | 14.6 µM | 16.6 µM | 19.9 µM | 15.1 µM | 17.8 µM | 27.5 µM | 17.6 µM | 42.6 µM | 18 µM | 16.3 µM | 22.5 µM | 18.1 µM | 18.7 µM | 16.2 µM | 15.3 µM
2 | CN(C)c1ccc(/C=C/c2cc[n+](C)c3ccccc23)cc1 | 16.3 µM | 21.4 µM | > 100 µM | 14 µM | 13.5 µM | 21.9 µM | > 100 µM | 8.72 µM | 12.9 µM | 6.51 µM | 25.1 µM | > 45.1 µM | 10.2 µM | > 58.8 µM | > 73.3 µM | 21.5 µM | 12.1 µM | 12.5 µM | 6.37 µM
3 | NC(N)=NC(N)=Nc1c(F)c(F)c(F)c(F)c1F | > 100 µM | > 100 µM | > 100 µM | > 100 µM | > 100 µM | > 100 µM | > 100 µM | > 100 µM | > 100 µM | > 100 µM | > 100 µM | > 100 µM | > 100 µM | > 100 µM | > 100 µM | > 100 µM | > 100 µM | > 100 µM | > 100 µM
4 | O=C1CCC[C@H]2O[C@@H](COCc3ccccc3)C[C@@H]12 | > 100 µM | > 100 µM | > 100 µM | > 100 µM | > 100 µM | > 100 µM | > 100 µM | > 100 µM | > 100 µM | > 100 µM | > 100 µM | > 100 µM | > 100 µM | > 100 µM | > 100 µM | > 100 µM | > 100 µM | > 100 µM | > 100 µM
5 | NCCCc1ccc2oc3ccccc3c2c1 | 32 µM | 38.3 µM | 36.4 µM | 47.7 µM | 31.5 µM | 32.9 µM | 46.3 µM | 33.1 µM | 50.3 µM | 52.2 µM | 30.4 µM | 69.4 µM | 29.1 µM | 30.2 µM | 29.6 µM | 39.1 µM | 30.6 µM | 41.8 µM | 38.2 µM
6 | O=C1CCc2cc3c(cc21)CC1(Cc2ccccc2C1)C3 | > 84.6 µM | > 100 µM | > 100 µM | > 100 µM | > 80.8 µM | > 100 µM | > 60.1 µM | > 93.6 µM | > 100 µM | 5.18 µM | > 100 µM | 5.38 µM | 5.92 µM | 66.6 µM | > 100 µM | > 100 µM | > 60.8 µM | > 86.5 µM | 6.37 µM
7 | CCOC(=O)C1(Cc2c[nH]c3ccccc23)C(O)CCCN1C(C)=O (stereo not drawn) | > 100 µM | > 100 µM | > 100 µM | > 100 µM | > 100 µM | > 100 µM | > 100 µM | > 100 µM | > 100 µM | > 100 µM | > 100 µM | > 100 µM | > 100 µM | > 100 µM | > 100 µM | > 100 µM | > 100 µM | > 100 µM | > 100 µM
8 | C1=NCCOCCN=Cc2ccccc2OCc2cccc(n2)COc2ccccc21 | > 25 µM | > 25 µM | 16.5 µM | 15 µM | 9.01 µM | > 25 µM | 13.4 µM | > 25 µM | > 25 µM | 9.91 µM | 20.4 µM | > 25 µM | 3.68 µM | > 25 µM | > 25 µM | > 25 µM | 12.9 µM | > 25 µM | > 25 µM
9 | Cc1ccc(-c2n[nH]c(=O)[nH]2)cc1 | > 100 µM | > 100 µM | > 100 µM | > 100 µM | > 100 µM | > 100 µM | > 100 µM | > 100 µM | > 100 µM | > 100 µM | > 100 µM | > 100 µM | > 100 µM | > 100 µM | > 100 µM | > 100 µM | > 100 µM | > 100 µM | > 100 µM
10 | CN(N)/N=N/c1nc[nH]c1C(N)=O | > 100 µM | > 100 µM | > 100 µM | > 100 µM | > 100 µM | > 100 µM | > 100 µM | > 100 µM | > 100 µM | 2.23 µM | > 100 µM | > 100 µM | > 100 µM | > 100 µM | > 62.2 µM | > 100 µM | > 100 µM | > 100 µM | > 100 µM
11 | CCCCCCCC(=O)N/N=C/c1ccc(Sc2nccn2C)c([N+](=O)[O-])c1 | 36.4 µM | 58.3 µM | 29.3 µM | 39.3 µM | 36.4 µM | 27.3 µM | 48.9 µM | 33.2 µM | 32.8 µM | 55.6 µM | 83.2 µM | 82.6 µM | 28.5 µM | 32 µM | 22.7 µM | 32 µM | 39 µM | 42.9 µM | 31 µM
12 | CSc1c(C(=O)Nc2ccc(Cl)cc2)c(N)[nH]c(=O)c1C#N | 73 µM | > 100 µM | > 100 µM | > 100 µM | 63 µM | > 100 µM | > 76.5 µM | 47.7 µM | > 100 µM | > 100 µM | > 100 µM | > 100 µM | > 70.9 µM | 62.1 µM | 59 µM | > 100 µM | > 100 µM | 53.3 µM | 32.2 µM
13 | O=C(O)c1cc2c(s1)C(=O)c1sccc1C2=O | 11.6 µM | 16.1 µM | 11.9 µM | 5.91 µM | 15.6 µM | 3.45 µM | 18.5 µM | 43.5 µM | 5.28 µM | 8.38 µM | 36 µM | 15.2 µM | 1.68 µM | 31.2 µM | 16 µM | 16.4 µM | 3.37 µM | 4.71 µM | 6.03 µM
14 | N=c1oc2ccc(Cl)cc2cc1C(=O)Nc1ccccc1 | > 94.8 µM | > 100 µM | > 100 µM | > 59.6 µM | > 100 µM | > 100 µM | > 100 µM | > 100 µM | > 100 µM | > 100 µM | > 100 µM | > 100 µM | > 100 µM | > 100 µM | > 100 µM | > 100 µM | > 86.4 µM | > 100 µM | > 100 µM
15 | NC1=Nc2ccccc2Sc2nnc(-c3ccc(Cl)cc3)n21 | 85 µM | > 100 µM | > 100 µM | > 100 µM | > 100 µM | > 100 µM | > 100 µM | > 100 µM | > 100 µM | > 100 µM | > 100 µM | 35.7 µM | > 100 µM | > 100 µM | > 100 µM | 95.3 µM | > 100 µM | > 100 µM | > 100 µM
16 | CSCC[C@H]1C(=O)N=C(N)N1C(=O)OCc1ccccc1 | > 100 µM | > 100 µM | > 100 µM | 49.9 µM | > 100 µM | 96.8 µM | > 100 µM | > 100 µM | 33.9 µM | 55.8 µM | > 100 µM | 71.9 µM | > 100 µM | > 100 µM | > 100 µM | > 100 µM | > 100 µM | 55.4 µM | > 100 µM
17 | COc1cc2c(c(OC)c1OC)C(=O)[C@H]1OC(=O)N[C@@H]21 | > 100 µM | > 100 µM | > 100 µM | > 100 µM | > 100 µM | > 100 µM | > 100 µM | > 100 µM | > 100 µM | > 100 µM | > 100 µM | > 100 µM | > 100 µM | > 100 µM | > 100 µM | > 100 µM | > 100 µM | > 100 µM | > 100 µM
